Assays:
[1] = test system: ISC-enriched organoids in ENR+CD; experiment: 384-well secondary screen in ENR+CD incl. early vs. full treatment, secreted LYZ (LYZ.NS, LYZ.S); format: cell-based, C57BL/6 mice; conditions: ENR+CD, across all doses
From the text: We again assessed treatment effect size with replicate SSMD (using a difference between well replicates and median assay value for all same-plate control wells—see Materials and Methods, High-throughput screening: 384-well secondary screen format and early vs. full treatment analysis) and hits were considered statistically validated by an SSMD greater than the false-positive-derived cutoffs (βα1=0.89 for 8 replicates with alpha=0.05; see Materials and Methods, High-throughput screening: 384-well secondary screen format and early vs. full treatment analysis) for both LYZ.NS and LYZ.S assays (FIG. 7A). Per this new cutoff, 10 dose-treatment combinations corresponding to 7 small molecules were chosen as hits, with every passing dose-treatment having a greater than 0 ATP effect size.
For 384-well plate high-throughput screening, ISC-enriched organoids were passaged and split to single cells with TyrpLE (Thermo Fisher Scientific) and cultured for 2-3 days in ENR+CVY prior to transfer to a “2.5-D” 384-well plate culture system. To prepare for “2.5D” plating, cell-laden Matrigel and media were homogenized via mechanical disruption and centrifuged at 300 g for 3 min at 4° C. Supernatant was removed and the pellet washed and spun in basal culture medium repeatedly until the cloudy Matrigel above the cell pellet was gone. On the final wash, pellet was resuspended in basal culture medium, the number of organoids counted, and the cell pellet was resuspended in ENR+CD medium at ˜7 clusters/μL. 384-well plates were first filled with 10 μL of 70% Matrigel (30% basal media) coating in each well using a Tecan Evo 150 Liquid Handling Deck, and allowed to gel at 37° C. for 5 minutes. Then 30 μL of cell-laden media was plated at the center of each well of 384-well plates with the liquid handler, and the plates were spun down at 50 g for 1 minute to embed organoids on the Matrigel surface. Compound libraries were pinned into prepped cell plates using 50 nL pins into 30 μL media/well. Cells were cultured at 37° C. with 5% CO2 for six days in ENR+CD medium supplemented with the tested compounds with a media change at three days. On day six, lysozyme secretion and cell viability were assessed using Lysozyme Assay Kit (EnzChek) and CellTiter-Glo 3D Cell Viability Assay (Promega), respectively, according to the manufacturers' protocols. Briefly, screen plates were washed 3× with FluoroBrite basal media (2 mM GlutaMAX and 10 mM HEPES in FluoroBrite DMEM (Thermo Fisher Scientific)) using a BioTek 406 plate washer with 10 min incubations followed by a 1 min centrifugation at 200 g to settle media between washes. After removal of the third wash, 30 μL of non-stimulated FluoroBrite basal media was added to each screen well using a Tecan Evo 150 Liquid Handling Deck from a non-stimulated treatment master plate, and plates were incubated for 30 min at 37° C. After 30 minutes, the top 15 μL of media from each well of the screen plate was transferred to a non-stimulated LYZ assay plate containing 15 μL of 20× DQ LYZ assay working solution using a Tecan Evo 150 Liquid Handling Deck. The non-stimulated LYZ assay plate was covered, shaken for 10 min, incubated for 50 min at 37° C., then fluorescence measured (shake 10 s; […]/518 nm) using a Tecan M1000 Plate Reader. After the media transfer to the non-stimulated LYZ assay plate, the remaining media was removed from the screen plate and 30 μL of Stimulated FluoroBrite basal media (supplemented with 10 μM CCh) was added to each screen well using a Tecan Evo 150 Liquid Handling Deck from a stimulated treatment master plate, and plates were incubated for 30 min at 37° C. After 30 minutes, the top 15 μL of media from each well of the screen plate was transferred to a stimulated LYZ assay plate containing 15 μL of 20× DQ LYZ assay working solution using a Tecan Evo 150 Liquid Handling Deck. […]

[2] = test system: conventional organoid (ENR); experiment: 384-well screen in conventional organoid (ENR), secreted LYZ (LYZ.NS, LYZ.S); format: cell-based, C57BL/6 mice; conditions: 6-day ENR differentiation compared with ENR+CD
6-day ENR+CD cells [3] = experiment: Long-term (48-hour) modulators of basal and CCh-induced LYZ secretion; format: cell-based, murine; conditions: 48-hour treatment, CCh-induced secretion over 3 hours on day 6
From the text: (§1) We next sought to profile potential long-term modulators of differentiated PC survival and antimicrobial secretion, as well as gauge the interaction between long-term modulators and short-term induced secretion (via CCh). To accomplish this, we employed a similar set up as in the short-term experiment, with the exception that upon plating day 4 ENR+CD cells we additionally supplemented in either MDP, LPS, TNF-α, or IFN-γ for the additional 2 days in culture and assayed all conditions for both basal and CCh-induced LYZ secretion over 3 hours on day 6 of differentiation (FIG. 3A). […] Additionally, we see that the long-term addition reduces CCh-induced secretory function relative to the untreated control for all agents (FIG. 3D).
(§2) Small intestinal crypts were isolated from C57BL/6 mice of both sexes, aged between three to six months in all experiments. Crypts were then cultured in a Matrigel culture system. Briefly, crypts were resuspended in basal culture medium (Advanced DMEM/F12 with 2 mM GlutaMAX and 10 mM HEPES; Thermo Fisher Scientific) at a 1:1 ratio with Corning™ Matrigel™ Membrane Matrix—GFR (Fisher Scientific) and plated at the center of each well of 24-well plates. Following Matrigel polymerization, 500 μL of small intestinal crypt culture medium (basal media plus 100× N2 supplement, 50×B27 supplement; Life Technologies, 500× N-acetyl-L-cysteine; Sigma-Aldrich) supplemented with growth factors EGF—E (50 ng/mL, Life Technologies), Noggin—N (100 ng/mL, PeproTech) and R-spondin 1—R (500 ng/mL, PeproTech) and small molecules CHIR99021—C (3 μM, LC Laboratories) and valproic acid—V (1 mM, Sigma-Aldrich) was added to each well. ROCK inhibitor Y-27632—Y (10 μM, R&D Systems) was added for the first 2 days of culture. Cells were cultured at 37° C. with 5% CO2, and cell culture medium was changed every other day. After 6 days of culture, crypt organoids were isolated from Matrigel by mechanical dissociation. To expand enriched ISCs (ENR+CV/Y) or Paneth Cells (ENR+CD), organoids were cultured in 24-well plates, suspended in 40 uL 3-D gels (50-50 GFR MATRIGEL®, Basal culture media), with 500 uL of crypt media supplemented with necessary growth factors and small molecules. ROCK inhibitor (Y) was added for the first two days of ISC culture following reconstitution from cryopreservation or trypLE passaging to single cells. Cell culture medium was changed every other day. After 4 days of culture in ENR+CV, cell clusters were differentiated to PCs under the ENR+CD condition for 96-well short and long-term screens. For 384-well differentiation screens, 4-day ENR+CV clusters were passaged to single cells using trypLE, replated and expanded another 3 days in 3-D ENR+CVY and then passaged directly into screens.
For 96-well plate high-throughput screening, 4-day differentiated (ENR+CD) cell clusters in 3D Matrigel were transferred to a “2.5-D” 96-well plate culture system. Briefly, cell culture gel and medium were homogenized via mechanical disruption and centrifuged at 300 g for 3 min at 4° C. […] On the last repeat, pellet was resuspended in basal culture medium, the number of cell clusters counted, and centrifuged at 300 g for 3 min at 4° C. […] At end time points (following 2 days in culture and 3 hours of stimulation), lysozyme secretion and cell viability were assessed using Lysozyme Assay Kit and CellTiter-Glo 3D Cell Viability Assay (Promega), respectively, according to the manufacturers' protocols. […]

6-day ENR+CD cells [4] = experiment: Cell pellet ATP after long-term (48-hour) treatment; format: cell-based, murine; conditions: low doses
From the text: as §1
as §2, with “ROCK inhibitor (Y) was added for the first two days of ISC culture following reconstitution from cryopreservation or trypLE passaging to single cells. Cell culture medium was changed every other day. After 4 days of culture in ENR+CV, cell clusters were differentiated to PCs under the ENR+CD condition for 96-well short and long-term screens. For 384-well differentiation screens, 4-day ENR+CV clusters were passaged to single cells using trypLE, replated and expanded another 3 days in 3-D ENR+CVY and then passaged directly into screens.” left out
For 96-well plate high-throughput screening, 4-day differentiated (ENR+CD) cell clusters in 3D Matrigel were transferred to a “2.5-D” 96-well plate culture system. […] On the last repeat, pellet was resuspended in basal culture medium, the number of cell clusters counted, and centrifuged at 300 g for 3 min at 4° C. […] At end time points (following 2 days in culture and 3 hours of stimulation), lysozyme secretion and cell viability were assessed using Lysozyme Assay Kit and CellTiter-Glo 3D Cell Viability Assay (Promega), respectively, according to the manufacturers' protocols. […]

## COc1ccc(C2CNC(=O)C2)cc1OC1CCCC1 (centres unmarked) [Rolipram]
[1]
  ATP-normalized LYZ assays (LYZ.NS/ATP, LYZ.S/ATP), early versus full treatment: do not see a trend or significant difference

## CCc1c(C(=O)C(N)=O)c2c(OCC(=O)O)cccc2n1Cc1ccccc1 [Varespladib]
[2]
  mean fold change in LYZ.NS/ATP and LYZ.S/ATP (LYZ secretion per cell) in ENR: minimal effects in the ENR-only system

## TNF-α
6-day ENR+CD cells [3]
  effect size of reduction of CCh-induced secretory function relative to untreated control: weak
6-day ENR+CD cells [4]
  SSMD effect size of increase in cell number (ATP): weak
  change in cell number (ATP rel. to ENR+CD): apparent increases in cell number

— patent US20200237852A1, “Small Molecule Enhancers of Paneth Cell Function and Differentiation” (Massachusetts Institute of Technology, priority 2019, published 2020)
